According to patent publication US9493472B2, “Substituted benzoxazoles” (BAYER PHARMA AKTIENGESELLSCHAFT, priority 2013, dated 2016):

Legend:
New Zealand rabbits = experiment: Rabbit venous reperfusion and bleeding model (combi model rabbit); format: in vivo; details: for Increase in reperfusion (blood flow/time area): on top of tissue plasminogen activator; for Significance of increase in reperfusion: p > 0.05
Description: Male New Zealand rabbits having a weight of 2.8-3.4 kg are anaesthetized using an intramuscular ketamine/Rompun bole injection. The animal is then shaved at the places needed for the surgery. A continuous infusion of anaesthetic (ketamine/Rompun) is administered via the left auricular vein using an indwelling catheter. Left and right femoral vein and right femoral artery are catheterized with a polyethylene tube (PESO). The jugular vein is then carefully exposed such that the vessel is stressed and damaged as little as possible and no more fat is present at the vessel. Using a suitable apparatus for measuring flow (Powerlab, Transonic TS420 incl. flow probe head), the flow in the jugular vein is recorded (Lab Chart Software). Prior to the start of the experiment, twice 1.4 ml of citrated blood are removed from the rabbit via the femoral artery, and the basal bleeding time at the rim of the ear is determined. Once there has been a constant flow from the jugular vein for 10 min (complete regeneration of the vessel after preparation), a 2 cm section of the vein is pinched off using small vessel clamps. In a Petri dish, the citrated blood removed earlier (300 μl) is mixed with calcium chloride (0.25 M, 90 μl) and thrombin (25 U/ml, 60 μl). 180 μl of the blood/calcium chloride/thrombin mixture are quickly drawn into a 1 ml syringe and, via a 27G cannula, injected into the pinched-off segment of the vessel. The injection site is pinched off with a pair of tweezers for one minute so that no blood can escape. Two minutes after injection of the thrombus, the test substance is administered as bole and infusion via the left femoral vein catheter. 14 minutes after the thrombus injection, tissue plasminogen activator is administered as bole and infusion (Actilyse®, 20 μg/kg bole & 150 μg/kg/h infusion) at the right femoral vein. 15 minutes after thrombus injection, the stasis is opened and the flow probe head is attached. Blood flow in the vessel is recorded for 120 minutes, and the vessel is kept moist with warm 0.9% aqueous sodium chloride solution during this time. After 105 minutes of reperfusion, the ear bleeding time is determined again. At the end of the experiment, after 120 minutes of reperfusion, 1.4 ml of citrated blood are removed, the animal is sacrificed painlessly by a bole injection of 1.5 ml of T61 and the weight of the thrombus in the jugular vein is determined. The blood removed before and after the experiment is used to obtain plasma and to determine the ex vivo coagulation time.
The area obtainable with tissue plasminogen activator alone is subtracted from the area achieved using the respective substance or dosage. The resulting area is a measure of the improvement of reperfusion by the test substance (Table 4).

[1] = tested on: plasma (prothrombin time); experiment: Anticoagulatory activity: prothrombin time (PT) in plasma; details: 37° C., 3 minutes incubation, plasma species not given, in some cases means, read-out: IC50 [μM] (concentration of test substance which effects a doubling of the prothrombin time)
Description: The anticoagulatory activity of the test substances is determined in vitro in human plasma, rabbit plasma and rat plasma. To this end, blood is drawn off in a mixing ratio of sodium citrate/blood of 1:9 using a 0.11 molar sodium citrate solution as receiver. Immediately after the blood has been drawn off, it is mixed thoroughly and centrifuged at about 4000 g for 15 minutes. The supernatant is pipetted off.
The prothrombin time (PT, synonyms: thromboplastin time, quick test) is determined in the presence of varying concentrations of test substance or the corresponding solvent using a commercial test kit (Neoplastin® from Boehringer Mannheim or Hemoliance® RecombiPlastin from Instrumentation Laboratory). The test compounds are incubated with the plasma at 37° C. for 3 minutes. Coagulation is then started by addition of thromboplastin, and the time when coagulation occurs is determined. The concentration of test substance which effects a doubling of the prothrombin time is determined Representative activity data from this test are given in Table 3 below (in some cases as means of individual determinations): […]

thrombin [2] = target: T1, thrombin (Homo sapiens (Human), UniProt P00734); experiment: Measurement of the thrombin inhibition in buffer; format: biochemical; details: human thrombin 0.06 nmol/l, Tris buffer pH 7.4, 22° C.; substrate Boc-Asp(OBzl)-Pro-Arg-AMC; in some cases means
Description: To determine the thrombin inhibition of the substances listed above, a biochemical test system is constructed in which the conversion of a thrombin substrate is used for determining the enzymatic activity of human thrombin. Here, thrombin cleaves aminomethylcoumarin, which is measured fluorescently, from the peptic substrate. The determinations are carried out in microtitre plates.
Substances to be tested are dissolved in various concentrations in dimethyl sulphoxide and incubated for 15 min with human thrombin (0.06 nmol/l dissolved in 50 mmol/l of Tris buffer [C,C,C-tris(hydroxymethyl)aminomethane], 100 mmol/l of sodium chloride, 0.1% BSA [bovine serum albumin], pH 7.4) at 22° C. The substrate (5 μmol/l Boc-Asp(OBzl)-Pro-Arg-AMC from Bachem) is then added. After 30 min of incubation, the sample is excited at a wavelength of 360 nm and the emission is measured at 460 nm. The measured emissions of the test batches with test substance are compared to the control batches without test substance (only dimethyl sulphoxide instead of test substance in dimethyl sulphoxide) and the IC50 values are calculated from the concentration/activity relationships.

thrombin [3] = target: T1, thrombin; experiment: Thrombin-inhibitory activity in plasma samples (ecarin-activated); format: biochemical; details: citrate plasma, prothrombinase activated by ecarin, fluorogenic thrombin substrate; in some cases means; read-out: IC50 [nM] thrombin inhibition in plasma samples
Description: To determine the inhibition of thrombin in plasma samples, plasma […] is activated by ecarin. Thrombin activity and/or its inhibition by potential inhibitors is/are then measured fluorenscently by addition of a substrate.
The substances to be tested are dissolved in various concentrations in dimethyl sulphoxide and diluted with water. In white 96-well flat-bottomed plates, 20 μl of substance dilution are mixed with 20 μl of ecarin solution (ecarin reagent, from Sigma E-0504, final concentration 20 mU per reaction) in Ca buffer (200 mM Hepes+560 mM sodium chloride+10 mM calcium chloride+0.4% PEG) or with 20 μl of Ca buffer (as unstimulated control). Furthermore, 20 μl of fluorogenic thrombin substrate (from Bachem I-1120, final concentration 50 μmol/l) and 20 μl of citrate plasma (from Octapharma) are added, and the mixture is homogenized well. The plate is measured in a SpectraFluorplus Reader using a 360 nm excitation filter and a 465 nm emission filter every minute over 20 minutes.

[4] = bole 0.33 mg/kg, continuous infusion 0.43 mg/kg/h
[5] = bole 0.08 mg/kg, continuous infusion 0.09 mg/kg/h

Row | SMILES | Increase in reperfusion (blood flow/time area) (New Zealand rabbits; [4]) | Significance of increase in reperfusion (New Zealand rabbits; [4]) | IC50 [1] | Increase in reperfusion (blood flow/time area) (New Zealand rabbits; [5]) | Significance of increase in reperfusion (New Zealand rabbits; [5]) | IC50 (thrombin [2]) | IC50 (thrombin [3])
1 | COc1cc(C(=O)N2CC(C)OC[C@@H]2CCO)cc2nc(NC(CF)c3cccc(Cl)c3)oc12 (single isomer, unassigned) [Example 15] | 12.2% | insignificant effect | 1.1 µM | – | – | – | –
2 | O=C(NC[C@H]1CN(c2ccc(N3CCOCC3=O)cc2)C(=O)O1)c1ccc(Cl)s1 [rivaroxaban, 5-chloro-N-({(5S)-2-oxo-3-[4-(3-oxo-4-morpholinyl)-phenyl]-1,3-oxazolidin-5-yl}methyl)-2-thiophenecarboxamide, reference compound] | – | – | – | 13.0% | insignificant effect | – | –
3 | COc1cc(C(=O)N2CC(C)(CC(C)O)OC[C@H]2C)cc2nc(NC(CF)c3cccc(Cl)c3)oc12 (stereo partly drawn) [Example 12, (2-{[1-(3-Chlorophenyl)-2-fluoroethyl]amino}-7-methoxy-1,3-benzoxazol-5-yl)[(5R)-2-(2-hydroxypropyl)-2,5-dimethylmorpholin-4-yl]methanone] | – | – | 1.5 µM | – | – | 0.1 nM | 14.7 nM
4 | COc1cc(C(=O)N2CC(C)OC[C@H]2C)cc2nc(NC(CF)c3cccc(Cl)c3)oc12 (single isomer, unassigned) [Example 7] | – | – | 1.9 µM | – | – | 5.3 nM | 11.4 nM
5 | COc1cc(C(=O)N2CC(C)OC[C@]23C[C@H](O)C3)cc2nc(NC(CF)c3cccc(Cl)c3)oc12 (stereo partly drawn) [Example 21, (2-{[1-(3-Chlorophenyl)-2-fluoroethyl]amino}-7-methoxy-1,3-benzoxazol-5-yl)(cis-2-hydroxy-7-methyl-8-oxa-5-azaspiro[3.5]non-5-yl)methanone] | – | – | 1.3 µM | – | – | 1.4 nM | 6.2 nM
